What was measured:
Trastuzumab [1] = assay: Induction of polyreactivity of Trastuzumab by heme derivatives; format: binding; details: for induction of polyreactivity of Trastuzumab: exposure of Trastuzumab to the compound; for rank of potential to induce polyreactivity: reactivity towards bacterial antigens
Trastuzumab [2] = assay: Size-exclusion chromatography, induction of Trastuzumab oligomers by heme or heme analogues; format: physicochemical
immobilized Trastuzumab = assay: ELISA induction of antibody homophilicity by heme; format: binding
Procedure: The plates were blocked with PBS 0.25% containing Tween 20 for 1 hour. […] IgG was then diluted two times in PBS-T before incubation on plates for 2 h at room temperature. Following extensive washing, the plates were incubated for 30 min with streptavidin-HRP (Southern Biotech).
IgG was then diluted ten times in PBS-T before incubation on the plates for 2 h at room temperature.

Trastuzumab [3] = assay: Absorbance spectroscopy of heme with Trastuzumab; format: binding
Procedure: Absorbance spectra were measured by using UNICAM Helios b, UV-vis spectrophotometer. […] After addition of each heme aliquot and incubation for 2 min in dark, the absorbance spectra in the wavelength range 350-700 nm were recorded. The spectra were scanned at rate of 300 nm/min. All measurements were performed at room temperature, in quartz cuvettes with optical path of 1 cm.

Trastuzumab [4] = assay: Circular dichroism of Trastuzumab exposed to heme; details: Ab 1 μM, heme 10 μM
Procedure: The CD spectra measurements were performed with JASCO-J710 Spectrometer. Data pitch and slit were both set to 1 nm. The data were recorded at scan speed on 10 nm/min in the range of 260-185 nm. […] The Ab was exposed or not to 10 μM concentration of heme. All spectra were acquired at 20° C. in quartz cuvettes with 1 mm optical path.

Trastuzumab [5] = assay: Quenching of intrinsic tryptophan fluorescence of Trastuzumab by heme; format: binding
Procedure: The Ab was diluted to 0.1 μM in PBS and titrated with increasing concentrations (0, 0.01, 0.025, 0.05, 0.1, 0.2, 0.4, 0.8, 1.6 and 3.2 μM) of heme, added as aliquots from a stock solution. A wavelength of 295 nm was used to selectively excite tryptophan residues. Excitation and emission slits were both adjusted to 10 nm. […] Quartz cuvette with 1 cm optical path was used in the experiment. All measurements were performed at room temperature.

SKBR3 cells = assay: Direct and complement-mediated cytotoxicity (WST-1), SKBR3; format: cell-based, human; details: identical concentrations as introduced by heme-bound Trastuzumab
Procedure: (§1) Cells were treated on 96-wells plates with flat bottom and low evaporation lid (Coster, USA). MDA-MB-231 or SKBR3 breast cancer cells were plated and left for 2 hours to adhere. […] The Ab was diluted to a final concentration of 3.7 μg/ml. As a source of complement, baby rabbit complement (AbD Serotec) was added to obtain a dilution of ×5 (MDA-MB-231 cells) or ×8 (SKBR3 cells). As control, heat inactivated fetal calf serum was added at the same ratios. To evaluate the amount of alive cells, WST-1 dye (Roche) was added after 5 days of incubation at 37° C. The absorbance at 450 nm and 690 nm was read after 2 hours incubation at 37° C.

Trastuzumab [6] = assay: SPR binding kinetics and thermodynamics of heme to immobilized Trastuzumab
Procedure: Trastuzumab was immobilized on a CMS sensor chip (Biacore) by using amine-coupling kit provided by the manufacturer. The Ab was diluted in 5 mM maleic acid (pH 4) to a final concentration of 10 μg/ml. The achieved immobilization level was 6300 resonance unit (RU). All measurements were performed using HBS-EP (0.01M HEPES, pH 7.4 containing 0.15 M NaCl, 3 mM EDTA and 0.05% Tween 20). Initially, a stock solution of heme (hemin, Frontiers Scientific, Logan, Utah) at 1 mM was prepared in 0.05 N NaOH. Heme was further diluted to 10 μM in the running buffer and 8 two-fold dilutions (10-0.078 μM) were injected at flow rate of 30 μl/min. The association and dissociation phases of the interaction were monitored for 5 min and 10 min, respectively. […]
Heme was diluted at 10 μM in HBS-EP and injected at flow rate of 30 ul/min. The association and dissociation phases of the interaction were monitored for 5 min and 10 min, respectively. […]
The kinetic rate constants obtained at different temperatures were used to build Arrhenius plots. The values of slopes of the Arrhenius plots were calculated by using a linear regression analysis of the experimental kinetic data and substituted in Equations 1-4,
Where the “slope”=∂1n(ka/d/∂(1/T), and where Ea is the activation energy. The enthalpy, entropy, and Gibbs free energy changes characterizing the association phase were calculated using Equations 2-4, […]

MDA-MB-231 cells = assay: Direct and complement-mediated cytotoxicity (WST-1), MDA-MB-231; format: cell-based, human; details: identical concentrations as introduced by heme-bound Trastuzumab
Procedure: as §1

[7] = test system: more than 9,000 human proteins; assay: Protein microarray (ProtoArray) reactivity; format: binding

## CC1=C(CCC(=O)O)c2cc3[n-]c(cc4nc(cc5[n-]c(cc1n2)c(CCC(=O)O)c5C)C(CCC(=O)O)=C4C)c(CCC(=O)O)c3C.[Fe+3] [Fe (III) coproporphyrin I]
Trastuzumab [1]
  induction of polyreactivity of Trastuzumab: appearance of novel antigen-binding specificities

## CC1=Cc2cc3[n-]c(cc4nc(cc5[n-]c(cc1n2)c(C)c5CCC(=O)O)C(CCC(=O)O)=C4C)cc3C.[Fe] [Fe (III) deuteroporphyrin IX]
Trastuzumab [1]
  induction of polyreactivity of Trastuzumab: appearance of novel antigen-binding specificities
  rank of potential to induce polyreactivity: most potent inducer of polyreactivity

## CCC1=C(C)C2=NC1=Cc1c(C)c(CC)c3[n]1[Fe][n]1c(c(C)c(CCC(=O)O)c1=CC1=NC(=C3)C(C)=C1CCC(=O)O)=C2 [Fe (III) mesoporphyrin IX]
Trastuzumab [1]
  induction of polyreactivity of Trastuzumab: appearance of novel antigen-binding specificities
Trastuzumab [2]
  induction of oligomerization / self-association of Trastuzumab: able to induce oligomerization of Trastuzumab

## C=CC1=C(C)c2cc3[n-]c(cc4[n-]c(cc5nc(cc1n2)C(C)=C5C=C)c(C)c4CCC(=O)O)c(CCC(=O)O)c3C.[Zn+2] [ZnPP, Zn (II) protoporphyrin IX, reference compound]
Trastuzumab [2]
  induction of oligomerization / self-association of Trastuzumab: failed to induced antibody homophilicity or oligomerization
Immobilized Trastuzumab
  induction of antibody homophilicity by heme analog: failed to induced antibody homophilicity or oligomerization

## iron protoporphyrin IX [heme]
Trastuzumab [1]
  rank of potential to induce polyreactivity: lowest potential
Trastuzumab [3]
  change in absorbance spectrum: increased absorbance intensity of heme in high and low energy regions of the spectrum
Trastuzumab [4]
  change of circular dichroism spectra: Considerable changes of the circular dichroism ellipticity curves
Trastuzumab [5]
  quenching of tryptophan fluorescence: concentration-dependent decrease in the fluorescence signal
SKBR3 cells
  cell proliferation, heme alone: no negative impact on the cell proliferation
Trastuzumab [6]; SPR, heme to immobilized Trastuzumab
  Kd: 100 nM
Trastuzumab [6]; immobilized Fab fragments, Fc fragments, heme 10 μM
  portion of the Ab binding heme: preferential binding to the immobilized Fab portion
MDA-MB-231 cells
  cell proliferation, heme alone: no negative impact on the cell proliferation
[7]
  binding to human proteins: able to bind to numerous human proteins, but to a lower extent
